Results: patent US9278086B2, “Combination therapy and uses thereof for treatment and prevention of parasitic infection and disease” (The Royal Institution for the Advancement of …, priority 2010, dated 2016)
Marks after values point to notes of the source that are not given here.

Columns and labels:
Plasmodium chabaudi [1] = test: 4-day test, P. chabaudi (10^7 pRBC i.v.) in pantetheinase-deficient A/J mice, blood parasitemia days 4 and 5; assay type: in vivo; details: for effect of addition of Cys on inhibition of parasitemia versus additive effect of the two compounds: Cys 170 mg/kg added to ART (0.2 or 0.5 mg/kg) or DHA (0.15 or 0.3 mg/kg); for Inhibition of parasitemia Day 4 / Inhibition of parasitemia Day 5: days 0-3; for symptoms of disease (ruffled fur, lethargy): mice receiving both Cys and ART/DHA, compared to PBS or only one compound; for inhibition of parasitemia compared to PBS-treated controls: ART 0.2 mg/kg alone
Method: (§1) A/J and C57BL/6 (B6) mice were purchased from the Jackson Laboratories (Bar Harbor, Me.) and were housed at McGill University according to the guidelines of the Canadian Council on Animal Care. An LDH virus-free isolate of P. chabaudi AS was maintained by weekly passage in A/J mice. Mice were infected intravenously into the tail vein (i.v.) with 10^6 or 10^7 pRBC suspended in pyrogen-free saline. Following infection, the percentage of pRBC was determined daily on thin blood smears stained with Dif-Quik™ (Dade Behring, Newark, Del.), as described (Fortin A, et al. (2001) Proc Natl Acad Sci USA 98: 10793-10798).
(§2) Cysteamine hydrochloride (Sigma, Burlington ON) was prepared in PBS. Chloroquine hydrochloride, artesunate and dihydroartemisinin were provided by Dafra Pharmaceuticals; chloroquine was prepared in PBS, artesunate and DHA were prepared in 5% sodium bicarbonate and diluted in water to appropriate concentrations. All solutions were prepared fresh daily, filter sterilized and injections were performed intra-peritoneally (i.p) or subcutaneously (s.c.) for 4 days or according to treatment regimen. Mice were weighed prior to treatment to determine appropriate doses and injection volumes ranged from 100-400 μL per mouse. In the case of animals treated with two drugs, artemisinin derivatives were administered first (due to the short half life of cysteamine), followed by cysteamine 5-10 minutes later on alternate sides. Untreated control animals were injected with PBS alone.
(§3) Groups with normally distributed data points were compared using parametric unpaired t-tests, while groups with non-Gaussian distributions were compared using non-parametric Mann-Whitney tests. Survival differences were analyzed using the Log-Rank test. […] Standard error of percent inhibition was calculated from individual mice compared to the mean parasitemia level of the control group.
(§4) The effect of Cys on the potency and efficacy of the anti-malarial artemisinin derivatives was tested. […] Synergy (Tallarida R J (2001) J Pharmacol Exp Ther 298: 865-872) is defined as a total anti-malarial activity (reduction in blood parasitemia compared to untreated controls in a standard 4-day test) of the two compounds administered together being greater than the sum of the independent activities of the two compounds given alone. We tested combinations of Cys and either artesunate (ART) or dihydroartemisinin (DHA), the bioactive form of artemisinin. Pantetheinase-deficient mice were infected with P. chabaudi (10^7 pRBC, i.v.) and treated with Cys (170 mg/kg) and/or sub-optimal doses of ART (0.2 or 0.5 mg/kg) (FIG. 3A) or DHA (0.15 or 0.3 mg/kg) (FIG. 3B) from day 0-3 and parasitemia was monitored on days 4 and 5. […] Potentiation of the anti-malarial activity of ART (0.5 mg/kg) by Cys was also clearly evident in these C57BL/6 mice at both days 4 and 5 post-infection, with combined treatment causing a 65-71% reduction in parasitemia compared to PBS controls, greater than either compound tested alone (13-29%) (TABLE 1).
It was subsequently examined whether Cys potentiation of ART was dose dependent. Initially, Cys doses of 60, 100, 140 and 180 mg/kg were tested with a sub-optimal ART dose of 0.2 mg/kg. The drugs were administered from day 0-3 post infection, parasitemia was counted at day 4 and day 5 and the percent inhibition was calculated compared to PBS-treated controls (FIG. 4A). At 0.2 mg/kg, ART alone inhibits parasitemia by ˜20% (day 4) and 40% (day 5) while inhibition by Cys alone was partially dose dependent (varying between 10% and 25%). […] It was also assessed whether Cys could potentiate low doses of artesunate which, given alone, have no significant effect on parasitemia. In this experiment, Cys (170 mg/kg) was administered in combination, or not, with increasing doses of ART (0.05, 0.1, 0.2, 0.4 mg/kg) in the same 4-day experimental protocol.

Plasmodium chabaudi [2] = test: Progression of P. chabaudi infection (10^6 pRBC i.v.) in pantetheinase-sufficient B6 mice; assay type: in vivo
Method: as §1, §2
To investigate whether the effects on parasite burden over the course of infection would also be observed with a pantetheinase-sufficient mouse strain, a similar experiment was performed using female B6 mice. Groups of mice were infected with 10^6 P. chabaudi pRBC i.v. and treated with PBS, 1 mg/kg or 30 mg/kg of Art, or 1 mg/kg or 30 mg/kg of Art plus 60 mg/kg of Cys for 4 days. […] As in A/J mice, the effect of Cys addition to 1 mg/kg of Art has a clear effect on early parasite replication at day 6 (FIG. 6B). […] B6 mice were able to completely clear parasite burdens and survive the infection, even in the control PBS-treated group.

Plasmodium chabaudi [3] = test: 4-day test, P. chabaudi (10^7 pRBC i.v.) in pantetheinase-sufficient C57BL/6 mice, blood parasitemia days 4 and 5; assay type: in vivo; details: for Inhibition of parasitemia Day 4 / Inhibition of parasitemia Day 5: days 0-3
Method: as §1, §2, §3, §4

Plasmodium chabaudi [4] = test: Progression, resolution and survival of lethal P. chabaudi infection (10^6 pRBC i.v.) in A/J mice; assay type: in vivo
Method: as §1, §2
It was investigated if low dose Cys could potentiate standard doses of ART that show therapeutic activity in vivo and concurrently determined possible long-term effects on patent parasitemia, resolution of infection and survival in a lethal infection model. In this protocol, mice were infected with 10^6 pRBC P. chabaudi (i.v.) and treated with Cys (60 mg/kg) and/or ART (0.5, 1, 2, 5 and 10 mg/kg) for 4 days (days 0-3), while blood parasitemia and survival were followed for 22 days. Control animals treated with either PBS or Cys alone (60 mg/kg) developed high parasite burdens, which peaked at day 6, and all mice succumbed to the infection by day 7 (FIGS. 5A and 5C). […] Likewise, although all mice treated with 0.5 mg/kg ART succumbed to the infection early (day 8), mice additionally receiving Cys survived until day 9; moreover, addition of Cys to 1.0 mg/kg ART completely rescued animals from lethality of infection, with 100% survival in this group (FIGS. 5B, 5C).

[5] = humans, oral dose 1475 mg Cys bitartrate (500 mg cysteamine base), cited from earlier work
Plasmodium berghei ANKA = Plasmodium berghei ANKA infection (cerebral malaria model) in C57BL/6J mice, parasitemia and survival; assay type: in vivo
Method: FIGS. 8A and 8B show the results of two independent experiments on the effect of cysteamine and artesunate combinations on the progression of Plasmodium berghei ANKA infection (parasitemia). Groups of 5 adult 18-20 g C57BL/6J males and females were infected intravenously with 1×10^6 erythrocytes parasitized with P. berghei ANKA at time “0”. Two hours later, mice were injected i.p with either Artemisinin alone or with Artemisinin/Cysteamine combinations (at the indicated concentrations in mg/kg body weight). In the case of the latter, Artemisinin was injected first in one quadrant, and cysteamine was injected second, 10-15 minutes later in another quadrant. The drug treatment was further repeated at days 1, 2 and 3 post-infection to emulate the standard 4-day test used in anti-malarial drug discovery. Starting at day 5, blood was collected, thin blood smears were prepared, and parasitemia was determined (400 erythrocytes counted, expressed as percentage parasitized erythrocytes). Error bars show standard deviations on the mean; and
FIGS. 9A and 9B show the results of two independent experiments on the effect of cysteamine and artesunate combinations on the survival of Plasmodium berghei ANKA-infected mice. Infection and drug administration were performed as described above for FIGS. 8A and 8B. Animals were monitored for the appearance and severity of cerebral symptoms (CM phase, shown as rectangle in graph), and moribund animals were euthanized, and time of death was recorded.
Intravenous infection with Plasmodium berghei ANKA is an accepted mouse model of cerebral malaria (CM) (Hunt, N. H. et al. 2006, Int. J. Parasitol. 36: 569-582). The infection causes the following pathology. First, there is appearance of blood parasitemia, starting at days 3 or 4, which can go up to 10% by day 7-8. Starting at day 5-6, there is emergence of cerebral symptoms caused by permeability of the blood brain barrier, concomitant to trapping of parasitized red cells in the microvasculature and acute pathological host inflammatory response in situ. This cerebral phase quickly progresses from tremors, to paralysis, to coma, and is uniformly lethal in mice by days 8-10. In this model, progress of infection and possibly drug effects may be monitored by a) appearance and intensity of blood parasitemia (between days 5-8), b) appearance of cerebral symptoms, and c) lethality.

[6] = A/J mice, DHA 0.15 mg/kg + cysteamine 170 mg/kg i.p.
[7] = A/J mice, DHA 0.3 mg/kg + cysteamine 170 mg/kg i.p.
[8] = A/J mice, artesunate 0.2 mg/kg + cysteamine 170 mg/kg i.p.
[9] = A/J mice, artesunate 0.2 mg/kg alone
[10] = A/J mice, artesunate 0.5 mg/kg + cysteamine 170 mg/kg i.p.
[11] = A/J mice, artesunate 0.5 mg/kg alone
[12] = artesunate 0.5 mg/kg + cysteamine 170 mg/kg i.p.

## C[C@@H]1CCC2[C@@H](C)[C@H](O)O[C@@H]3O[C@]4(C)CCC1C23OO4 (some centres unmarked) [DHA, dihydroartemisinin]
Plasmodium chabaudi [1]; A/J mice
  effect of addition of Cys on inhibition of parasitemia versus additive effect of the two compounds: synergistic effect
Plasmodium chabaudi [1]; [6]
  Inhibition of parasitemia Day 4: 56* % PBS control
  Inhibition of parasitemia Day 5: 46* % PBS control
Plasmodium chabaudi [1]; A/J mice, DHA 0.15 mg/kg alone
  Inhibition of parasitemia Day 4: 22 % PBS control
  Inhibition of parasitemia Day 5: 13 % PBS control
Plasmodium chabaudi [1]; [7]
  Inhibition of parasitemia Day 4: 80 % PBS control
  Inhibition of parasitemia Day 5: 71* % PBS control
Plasmodium chabaudi [1]; A/J mice, DHA 0.3 mg/kg alone
  Inhibition of parasitemia Day 4: 50 % PBS control
  Inhibition of parasitemia Day 5: 40 % PBS control
Plasmodium chabaudi [1]
  symptoms of disease (ruffled fur, lethargy): fewer symptoms of disease

## C[C@H]1[C@H](OC(=O)CCC(=O)O)O[C@@H]2O[C@@]3(C)CC[C@H]4[C@H](C)CC[C@@H]1[C@@]24OO3 [Artesunate, artesunate]
Plasmodium chabaudi [1]; A/J mice, day 4 (FIG. 4A)
  inhibition of parasitemia compared to PBS-treated controls: ~20%
Plasmodium chabaudi [1]; A/J mice, day 5 (FIG. 4A)
  inhibition of parasitemia compared to PBS-treated controls: 40%
Plasmodium chabaudi [1]; A/J mice, ART 0.1 and 0.2 mg/kg combined with Cys 170 mg/kg (FIG. 4C)
  inhibition of parasitemia replication: 60-75%
Plasmodium chabaudi [1]; A/J mice, ART 0.1 and 0.2 mg/kg used alone (FIG. 4C)
  inhibition of parasitemia replication: < 10%
Plasmodium chabaudi [1]; A/J mice
  effect of addition of Cys on inhibition of parasitemia versus additive effect of the two compounds: synergistic effect
Plasmodium chabaudi [1]; A/J mice, Cys 170 mg/kg with ART 0.05, 0.1, 0.2, 0.4 mg/kg (FIG. 4C)
  potentiation of low-dose artesunate by Cys: ≥ 3 fold
Plasmodium chabaudi [1]; [8]
  Inhibition of parasitemia Day 4: 65* % PBS control
  Inhibition of parasitemia Day 5: 56* % PBS control
Plasmodium chabaudi [1]; [9]
  Inhibition of parasitemia Day 4: 30 % PBS control
  Inhibition of parasitemia Day 5: 20 % PBS control
Plasmodium chabaudi [1]; [10]
  Inhibition of parasitemia Day 4: 93 % PBS control
  Inhibition of parasitemia Day 5: 80* % PBS control
Plasmodium chabaudi [1]; [11]
  Inhibition of parasitemia Day 4: 65 % PBS control
  Inhibition of parasitemia Day 5: 43 % PBS control
Plasmodium chabaudi [1]
  symptoms of disease (ruffled fur, lethargy): fewer symptoms of disease
Plasmodium chabaudi [2]; 30 mg/kg Art plus Cys 60 mg/kg
  outward symptoms of disease (lethargy, ruffled fur): did not display any outward symptoms of disease
  parasite levels: under 12 % pRBC
Plasmodium chabaudi [2]; Art 1 or 30 mg/kg + Cys 60 mg/kg, 4 days
  parasite levels and peak compared to Art administered alone: reduction in parasite levels and a delay in the peak
Plasmodium chabaudi [3]; ART 0.5 mg/kg combined with Cys 170 mg/kg, days 4 and 5
  reduction in parasitemia compared to PBS controls: 65-71%
Plasmodium chabaudi [3]; [12]
  Inhibition of parasitemia Day 4: 71* % PBS control
  Inhibition of parasitemia Day 5: 65* % PBS control
Plasmodium chabaudi [3]; artesunate 0.5 mg/kg alone
  Inhibition of parasitemia Day 4: 29 % PBS control
  Inhibition of parasitemia Day 5: 21 % PBS control
Plasmodium chabaudi [4]; ART 0.5 mg/kg + Cys 60 mg/kg
  day until which mice survived: 9 days
Plasmodium chabaudi [4]; ART 0.5 mg/kg alone
  day at which all mice succumbed to the infection: 8 days
Plasmodium chabaudi [4]; ART 1.0 mg/kg + Cys 60 mg/kg
  survival: 100%
Plasmodium chabaudi [4]; ART alone 0.5-10 mg/kg, dose-dependent
  effect on infection (onset and peak of parasitemia): delay in the onset of parasitemia and a reduction of peak parasitemia
Plasmodium chabaudi [4]; Cys 60 mg/kg added to 0.5 mg/kg or 1 mg/kg ART
  further reduction in parasitemia at day 6: 60-70%
Plasmodium chabaudi [4]; Cys 60 mg/kg added to all ART doses tested
  peak levels of parasitemia relative to the corresponding dose of ART alone: reduction of peak levels of parasitemia

## NCCS.O=C(O)C(O)C(O)C(=O)O (centres unmarked) [Cys bitartrate, cysteamine bitartrate]
[5]
  AUCT0-Tlast: 3613 min

## NCCS [Cys bitartrate, cysteamine bitartrate]
[5]; read-out: peak plasma concentration (Cmax)
  Cmax: 39 µM

## C[C@@H]1CCC2[C@@H](C)C(=O)O[C@@H]3O[C@]4(C)CCC1C23OO4 (some centres unmarked) [Artemisinin]
Plasmodium berghei ANKA; Artemisinin 5 or 10 mg/kg + Cysteamine i.p., days 0-3
  rise and absolute levels of parasitemia (days 6-8) versus Artemisinin alone: delay in the rise of parasitemia
Plasmodium berghei ANKA; cysteamine added to Artemisinin
  prolongation of survival over Artemisinin alone: 1 to 2 days
Plasmodium berghei ANKA; two independent experiments (FIG. 8A, 8B)
  effect of adding cysteamine compared with doubling the dose of Artemisinin: comparable (FIG. 8A) or superior (FIG. 8B)
